Data taken from US20260184710A1, “CASITAS B-LINEAGE LYMPHOMA PROTOONCOGENE B (CBL-B) DEGRADING COMPOUNDS AND ASSOCIATED METHODS OF USE” (Arvinas Operations, Inc., priority 2022, published 2026).
One block for each compound: values may come before it.

Assays:
Cbl-b [1] = biological target: T1, Cbl-b (Homo sapiens, UniProt Q13191); experiment: Cbl-b Degradation Method B (Nano-Glo HiBiT lytic detection); format: cell-based; settings: Cbl-b-HiBit KI Jurkat Cells, incubated at least 6-24 hours; for DC50: half maximal degradation, read-out: Cbl-b Degredation Method B IC50; for Dmax: maximum degradation observed, read-out: Cbl-b Degredation Method B Dmax (%)
T1 construct: Cbl-b-HiBit KI Jurkat Cells were purchased from Promega; host or cells: Cbl-b-HiBiT knock-in Jurkat cells
Method in brief: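 An 11-point, 3-fold compound dilution was applied for 6-24 hours to Jurkat cells carrying HiBiT-tagged endogenous Cbl-b. Lytic HiBiT luminescence quantified residual protein. Outputs are DC50 and Dmax relative to DMSO control.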

Cbl-b [2] = biological target: T1, Cbl-b; experiment: Cbl-b Degradation Method A (FACS, anti-Cbl-b antibody staining); format: cell-based; settings: Cbl-b-HiBit KI Jurkat Cells, incubated at least 20 hours; for DC50: half maximal degradation, read-out: Cbl-b Degredation Method A IC50; for Dmax: Jurkat, maximum degradation observed, read-out: Cbl-b Degredation Method A Dmax (%)
Description: Cbl-b Degradation Method A
Cbl-b-HiBit KI Jurkat Cells were purchased from Promega, and cell media consisted of RPMI 1640 with 10% FBS and 1% pen/strep. The cells were counted, measured for viability, and 100 μL of the cell solution was into 96 well flat bottom plates at a ratio of 290,000 cells per 100 μL. Compounds were dissolved in DMSO to make a 10 mM stock solution, which was diluted with cell media. 100 μL of the diluted compound mixture was added to the wells. The plate was incubated for at least 20 hours at 37° C. and 5% CO2. After incubation, the plate was shaken at 700-750 RMP for 15-30 minutes to ensure cells were removed from the wells. The wells were transferred to a 96-well v-bottom plate and spun for 2200 RPM for 3 minutes. The supernatant was removed, cells re-suspended in 100 μL of the fixative, and subsequently incubated at room temperature for 15 minutes. Afterwards, 150 μL of DPBS was added to each well, and the cells were centrifuged at 2500 RPM for 3 minutes. The supernatant was removed and the plate was chilled on ice for 2-3 minutes. While still on the ice, 100 μL of Perm III was added to each well, the wells mixed, and subsequently left on the ice for another 15 minutes. Afterwards, the plate was removed from the ice, 150 μL of DBPS was added to each well, and the cells centrifuged at 2700 RPM for 3 minutes. The supernatant was removed, and an additional 200 μL of was DPBS was added to each well, followed by centrifuging at 2700 RPM for 3 minutes, after which the supernatant was removed. The anti-Cbl-b antibody was diluted 1:200 in 1× Perm Wash buffer and 50 μL of the antibody mixture was added to each well and mixed. After addition, the plate was incubated for 35-45 minutes at room temperature. After incubation, 200 μL of DPBS was added to each wells, and the plate centrifuged at 2700 RPM for 3 minutes, followed by the removal of the supernatant. The washing step was repeated by adding 200 μL of DPBS to each wells followed by centrifuge at 2700 RPM for 3 minutes and removal of the supernatant. The a-Rabbit-AF488 antibody was diluted 1:1000 in Perm Wash buffer, 50 μL of the dilution added to each well, and mixed. After mixing, the plate was incubated for 30 minutes at room temperature in the dark. Subsequently, the supernatant was removed, and 200 μL of DBPS added to the cells, which were then centrifuged at 2900 RPM for 4 minutes. The supernatant was removed, and an additional 95 μL of DBPS was added to the wells and mixed. The cells were then transferred to a round bottom polypropylene plate and analyzed using FACS with the parameters below:
The concentration of an exemplary compound that leads to half maximal degradation (DC50) as well as the maximum degradation observed (Dmax, conventionally expressed as a percentage of control) is shown below in Table 2.

T1 sequence (Q13191 whole entry): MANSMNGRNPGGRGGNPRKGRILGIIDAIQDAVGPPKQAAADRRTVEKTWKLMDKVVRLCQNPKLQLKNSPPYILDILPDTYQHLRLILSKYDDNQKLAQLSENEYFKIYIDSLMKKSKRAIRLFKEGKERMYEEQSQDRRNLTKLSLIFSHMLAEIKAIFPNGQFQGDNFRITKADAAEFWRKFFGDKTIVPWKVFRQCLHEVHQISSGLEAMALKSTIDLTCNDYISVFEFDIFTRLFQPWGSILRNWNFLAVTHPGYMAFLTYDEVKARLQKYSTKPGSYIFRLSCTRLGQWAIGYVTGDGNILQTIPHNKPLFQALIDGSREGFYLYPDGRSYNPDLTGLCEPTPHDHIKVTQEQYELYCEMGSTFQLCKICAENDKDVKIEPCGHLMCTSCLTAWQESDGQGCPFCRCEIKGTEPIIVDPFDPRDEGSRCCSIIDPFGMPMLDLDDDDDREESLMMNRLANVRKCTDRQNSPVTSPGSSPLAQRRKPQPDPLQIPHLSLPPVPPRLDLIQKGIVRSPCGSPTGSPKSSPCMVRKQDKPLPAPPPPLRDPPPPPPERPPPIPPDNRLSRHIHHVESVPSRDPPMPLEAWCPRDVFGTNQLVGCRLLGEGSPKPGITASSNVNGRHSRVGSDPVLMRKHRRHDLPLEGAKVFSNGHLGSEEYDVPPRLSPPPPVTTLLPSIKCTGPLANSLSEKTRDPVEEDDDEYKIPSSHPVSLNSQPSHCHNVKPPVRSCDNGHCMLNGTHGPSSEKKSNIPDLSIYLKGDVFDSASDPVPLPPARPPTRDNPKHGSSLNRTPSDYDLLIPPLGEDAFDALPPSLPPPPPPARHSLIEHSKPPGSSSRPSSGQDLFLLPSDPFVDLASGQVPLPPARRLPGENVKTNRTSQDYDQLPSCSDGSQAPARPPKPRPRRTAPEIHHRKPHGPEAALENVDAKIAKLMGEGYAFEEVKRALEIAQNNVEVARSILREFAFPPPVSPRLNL

Compound: Cn1cnnc1CC1(c2cccc(N3Cc4c(cc(N5CC(CC6CCN(c7ccc8c(c7)C(=O)N(C7CCC(=O)NC7=O)C8=O)CC6)C5)cc4C(F)(F)F)C3=O)c2)COC1 (centres unmarked) [Example 133, 2-(2,6-dioxopiperidin-3-yl)-5-[4-({1-[2-(3-{3-[(4-methyl-4H-1,2,4-triazol-3-yl)methyl]oxetan-3-yl}phenyl)-3-oxo-7-(trifluoromethyl)-2,3-dihydro-1H-isoindol-5-yl]azetidin-3-yl}methyl)piperidin-1-yl]-2,3-dihydro-1H-isoindole-1,3-dione]
DC50 (Cbl-b [2]): 5 to 50 nM | Dmax (Cbl-b [2]): > 70%

Compound: Cn1cnnc1CC1(c2cccc(N3Cc4c(cc(N5CC6(CCN(C[C@H]7CC[C@H](OC8CCN(c9ccc%10c(c9Cl)CN(C9CCC(=O)NC9=O)C%10=O)CC8)CC7)CC6)C5)cc4C(F)(F)F)C3=O)c2)COC1 (some centres unmarked) [Example 184, 3-[4-chloro-1-oxo-5-(4-{[(1r,4r)-4-({2-[2-(3-{3-[(4-methyl-4H-1,2,4-triazol-3-yl)methyl]oxetan-3-yl}phenyl)-3-oxo-7-(trifluoromethyl)-2,3-dihydro-1H-isoindol-5-yl]-2,7-diazaspiro[3.5]nonan-7-yl}methyl)cyclohexyl]oxy}piperidin-1-yl)-2,3-dihydro-1H-isoindol-2-yl]piperidine-2,6-dione]
DC50 (Cbl-b [2]): < 5 nM | Dmax (Cbl-b [2]): > 70%

Compound: Cc1cc(N2CCC(O[C@H]3CC[C@H](CN4CCC5(CC4)CN(c4cc6c(c(C(F)(F)F)c4)CN(c4cccc([C@]7(Cc8nncn8C)C[C@@H](C#N)C7)c4)C6=O)C5)CC3)CC2)c(F)c2c1C(=O)N(C1CCC(=O)NC1=O)C2 (some centres unmarked) [Example 187, (1r,3r)-3-[(4-methyl-4H-1,2,4-triazol-3-yl)methyl]-3-{3-[1-oxo-6-(7-{[(1r,4r)-4-({1-[2-(2,6-dioxopiperidin-3-yl)-4-fluoro-7-methyl-1-oxo-2,3-dihydro-1H-isoindol-5-yl]piperidin-4-yl}oxy)cyclohexyl]methyl}-2,7-diazaspiro[3.5]nonan-2-yl)-4-(trifluoromethyl)-2,3-dihydro-1H-isoindol-2-yl]phenyl}cyclobutane-1-carbonitrile]
DC50 (Cbl-b [2]): 5 to 50 nM | Dmax (Cbl-b [2]): 35 to 70%

Compound: Cc1cc(N2CCC(CN3CC4(C3)CN(C3=CC5C(=O)N(c6cccc([C@]7(Cc8nncn8C)C[C@@H](C#N)C7)c6)CC5C(C(F)(F)F)=C3)C4)CC2)c(F)c2c1C(=O)N(C1CCC(=O)NC1=O)C2 (some centres unmarked) [Example 189, (1r,3r)-3-(3-{6-[6-({1-[2-(2,6-dioxopiperidin-3-yl)-4-fluoro-7-methyl-1-oxo-2,3-dihydro-1H-isoindol-5-yl]piperidin-4-yl}methyl)-2,6-diazaspiro[3.3]heptan-2-yl]-1-oxo-4-(trifluoromethyl)-2,3,3a,7a-tetrahydro-1H-isoindol-2-yl}phenyl)-3-[(4-methyl-4H-1,2,4-triazol-3-yl)methyl]cyclobutane-1-carbonitrile]
DC50 (Cbl-b [2]): 5 to 50 nM | Dmax (Cbl-b [2]): 35 to 70%

Compound: Cc1cc(N2CCC(CN3CCC4(CC3)CN(c3cc5c(c(C(F)(F)F)c3)CN(c3cccc(C6(Cc7nncn7C)CCC6)c3)C5=O)C4)CC2)c(F)c2c1C(=O)N(C1CCC(=O)NC1=O)C2 (centres unmarked) [Example 190, 3-{4-fluoro-7-methyl-5-[4-({2-[2-(3-{1-[(4-methyl-4H-1,2,4-triazol-3-yl)methyl]cyclobutyl}phenyl)-3-oxo-7-(trifluoromethyl)-2,3-dihydro-1H-isoindol-5-yl]-2,7-diazaspiro[3.5]nonan-7-yl}methyl)piperidin-1-yl]-1-oxo-2,3-dihydro-1H-isoindol-2-yl}piperidine-2,6-dione]
DC50 (Cbl-b [2]): 5 to 50 nM | Dmax (Cbl-b [2]): > 70%

Compound: Cc1cc(N2CCC(O[C@H]3CC[C@H](CN4CCN(Cc5cc6c(c(C(F)(F)F)c5)CN(c5cccc([C@]7(Cc8nncn8C)C[C@@H](C#N)C7)c5)C6=O)CC4)CC3)CC2)c(F)c2c1C(=O)N(C1CCC(=O)NC1=O)C2 (some centres unmarked) [Example 205, (1r,3r)-3-[(4-methyl-4H-1,2,4-triazol-3-yl)methyl]-3-(3-{1-oxo-6-[(4-{[(1r,4r)-4-({1-[2-(2,6-dioxopiperidin-3-yl)-4-fluoro-7-methyl-1-oxo-2,3-dihydro-1H-isoindol-5-yl]piperidin-4-yl}oxy)cyclohexyl]methyl}piperazin-1-yl)methyl]-4-(trifluoromethyl)-2,3-dihydro-1H-isoindol-2-yl}phenyl)cyclobutane-1-carbonitrile]
DC50 (Cbl-b [2]): < 5 nM | Dmax (Cbl-b [2]): 35 to 70%

Other lines, results leading:

DC50 (Cbl-b [1]): < 5 nM | Dmax (Cbl-b [1]): 35 to 70% | DC50 (Cbl-b [2]): 5 to 50 nM | Dmax (Cbl-b [2]): > 70%
Compound: CC1c2nc(N3CCC(O[C@H]4CC[C@H](CN5CCN(Cc6cc7c(c(C(F)(F)F)c6)CN(c6cccc(C8(Cc9nncn9C)CCC8)c6)C7=O)CC5)CC4)CC3)ccc2C(=O)N1C1CCC(=O)NC1=O (mixture of isomers) [Example 232, rac-3-[7-methyl-5-oxo-2-(4-{[(1r,4r)-4-[(4-{[2-(3-{1-[(4-methyl-4H-1,2,4-triazol-3-yl)methyl]cyclobutyl}phenyl)-3-oxo-7-(trifluoromethyl)-2,3-dihydro-1H-isoindol-5-yl]methyl}piperazin-1-yl)methyl]cyclohexyl]oxy}piperidin-1-yl)-5H,6H,7H-pyrrolo[3,4-b]pyridin-6-yl]piperidine-2,6-dione]

DC50 (Cbl-b [1]): < 5 nM | Dmax (Cbl-b [1]): 35 to 70% | DC50 (Cbl-b [2]): 5 to 50 nM | Dmax (Cbl-b [2]): 35 to 70%
Compound: CC1c2nc(N3CCC(O[C@H]4CC[C@H](CN5CCN(Cc6cc7c(c(C(F)(F)F)c6)CN(c6cccc(C8(Cc9nncn9C)CC8)c6)C7=O)CC5)CC4)CC3)ccc2C(=O)N1C1CCC(=O)NC1=O (mixture of isomers) [Example 234, rac-3-[7-methyl-5-oxo-2-(4-{[(1r,4r)-4-[(4-{[2-(3-{1-[(4-methyl-4H-1,2,4-triazol-3-yl)methyl]cyclopropyl}phenyl)-3-oxo-7-(trifluoromethyl)-2,3-dihydro-1H-isoindol-5-yl]methyl}piperazin-1-yl)methyl]cyclohexyl]oxy}piperidin-1-yl)-5H,6H,7H-pyrrolo[3,4-b]pyridin-6-yl]piperidine-2,6-dione]

DC50 (Cbl-b [1]): < 5 nM | Dmax (Cbl-b [1]): > 70% | DC50 (Cbl-b [2]): < 5 nM | Dmax (Cbl-b [2]): > 70%
Compound: CC1c2nc(N3CCC(O[C@H]4CC[C@H](CN5CCN(Cc6cc7c(c(C(F)(F)F)c6)CN(c6cccc(C8(Cc9nncn9C)COC8)c6)C7=O)CC5(C)C)CC4)CC3)ccc2C(=O)N1C1CCC(=O)NC1=O (mixture of isomers) [Example 236, rac-3-[7-methyl-5-oxo-2-(4-{[(1r,4r)-4-[(2,2-dimethyl-4-{[2-(3-{3-[(4-methyl-4H-1,2,4-triazol-3-yl)methyl]oxetan-3-yl}phenyl)-3-oxo-7-(trifluoromethyl)-2,3-dihydro-1H-isoindol-5-yl]methyl}piperazin-1-yl)methyl]cyclohexyl]oxy}piperidin-1-yl)-5H,6H,7H-pyrrolo[3,4-b]pyridin-6-yl]piperidine-2,6-dione]

DC50 (Cbl-b [2]): 5 to 50 nM | Dmax (Cbl-b [2]): > 70%
Compound: Cc1cc(N2CCC(O[C@H]3CC[C@H](CN4CCN(Cc5cc6c(c(C(F)(F)F)c5)CN(c5cccc(C7(Cc8nncn8C)CCC7)c5)C6=O)C(C)(C)C4)CC3)CC2)c(F)c2c1C(=O)N(C1CCC(=O)NC1=O)C2 (some centres unmarked) [Example 224, 3-[4-fluoro-7-methyl-1-oxo-5-(4-{[(1r,4r)-4-[(3,3-dimethyl-4-{[2-(3-{1-[(4-methyl-4H-1,2,4-triazol-3-yl)methyl]cyclobutyl}phenyl)-3-oxo-7-(trifluoromethyl)-2,3-dihydro-1H-isoindol-5-yl]methyl}piperazin-1-yl)methyl]cyclohexyl]oxy}piperidin-1-yl)-2,3-dihydro-1H-isoindol-2-yl]piperidine-2,6-dione]
